Experimental data taken from patent US20140066410A1, “INHIBITORS OF BROMODOMAINS AS MODULATORS OF GENE EXPRESSION” (ICAHN SCHOOL OF MEDICINE AT MOUNT SINAI, priority 2011, published 2014).

What was measured:
caspase 3/7 = experiment: Caspase 3/7 assay in cardiomyocytes; type: cell-based, rat; settings: doxorubicin-induced
Method: Neonatal rat ventricular myocytes (NRVMs) were isolated by enzymatic dissociation of cardiac ventricle from 1-to-2-day-old Sprague-Dawley pups using the Worthington neonatal cardiomyocyte isolation system (Worthington). Briefly, the pups were anesthetized and their hearts were excised. The ventricular tissues were minced in ice cold HBSS and then digested with trypsin overnight at 4° C. followed by collagenase treatment for 45 min at 37° C. Cells were collected by centrifugation at 800 rpm for 5 min and subsequently underwent two rounds of preplating on culture dishes to minimize nonmyocyte contamination. The enriched cardiomyocytes were cultured in DMEM/F12 nutrient mixture (Invitrogen) with 10% horse serum and 5% fetal calf serum (Invitrogen). After 48 hours, the medium was changed to DMEM/F12 containing 1% insulin, transferrin, and selenium media supplement (ITS; Invitrogen) and 0.1% BSA.
Caspase 3/7 and TUNEL assays were performed to assess inhibition of apoptosis by ischemin. Caspase assay and TUNEL assays were performed using Caspase-Glo 3/7 and DeadEnd kits from Promega. Caspase assay was performed on live cardiomyocytes in 96 wells plate on three different days. Similarly, TUNEL assay was performed in triplicate on three different days. […] After treatment with compounds overnight and then doxorubicin for 24 hours, the intensities of luminecnce were read. […]

p53 target genes = experiment: RT-PCR array of p53 signaling pathway genes in U20S cells; type: cell-based
Method: The selectivity of ischemin in transcription inhibition of p53 target genes was evaluated using a RT-PCR array analysis of RNA isolated from biological samples of U20S cells. The array was performed on RNA isolated from three different biological repeats in U20S cells using a set of primers selected for a group of genes that are known to be associated within p53 signaling pathways. The differentially expressed genes in treated related to untreated groups, i.e. doxorubicin treated versus untreated, or doxorubicin plus ischemin versus doxorubicin alone, were subjected to pathway analysis by using the Ingenuity System software. The fold changes of these genes were converted to log2Ratio and then imported into IPA tool along with gene symbols. The enriched pathways in the gene list were identified by Fisher exact test at p value of 0.05 and visualized in Canonical pathway explorer.

p53 = experiment: Western blot of doxorubicin-treated U20S cells; type: cell-based
Method: U20S cells were harvested cells and lysed in lysis buffer (20 mM Tris (pH 8.0), 150 mM NaCl, 1 mM EGTA, 1% Triton X-100, and 50 mM NaF) containing protease inhibitor cocktail (Sigma). The cells were sonicated and spun down at 14,000 rpm for 30 min at 4° C. After protein estimation, 30-50 micrograms of lysates were subjected to SDS-PAGE, transferred onto nitrocellulose membranes, blocked with 5% milk/PBS and blotted with a primary antibody. Horse radish peroxidase-labeled secondary antibodies (goat anti-Mouse or anti-Rabbit) were added for 60 min at room temperature, and the blots were washed with TBS (20 mM Tris, 150 mM Nacl, and 0.05% tween −20) and subjected to autoradiography after development of reaction by ECL (GE health care).
The biochemical effects of ischemin on p53 stability and function as transcription factor was examined. U20S cells were incubated in the presence of doxorubicin with or without ischemin at concentration of 50 or 100 μM for 24 hours. Subsequently, cellular proteins were subjected to western blot analysis (as described above).
As a transcription factor, p53 ability to activate gene expression is also dependent upon chromatin modifications. Since CBP acetylates both histones and p53, the possible changes of epigenetic marks on p53 and global histones in presence of ischemin was evaluated.

CBP/p300 = experiment: Fluorescence-based lysine acetyltransferase assay with histone H3 peptide substrate; type: biochemical; settings: data not shown
From the text: The latter argues that ATM is active in presence of ischemin, which is consistent with our analysis using Western blots (FIG. 2B).

[1] = ischemin 50 or 100 μM, 24 hours, U20S cells
[2] = nuclear extracts from U20S cells

Cc1cc(/N=N/c2cc(S(=O)(=O)O)c(C)cc2C)c(N)cc1O [Ischemin/MS120, 5-(2-amino-4-hydroxy-5-methylphenylazo)-2,4-dimethylbenzenesulfonic acid]
Caspase 3/7 activity (caspase 3/7): inhibiting caspase 3/7 activity in a dose-dependent manner
Doxorubicin-induced expression of p53 target genes (CCNE2, CCNG2, CDC2, CDC25A, CDKN1A, CDKN2A, GADD45A, E2F1, E2F3, PCNA, SESN1, SESN2) (p53 target genes): differentially reduce
Level or functional phosphorylation state of ATM and CHK1 (p53; U20S cells, doxorubicin): did not affect
Expression of p53 target genes p21, PUMA and 14-3-3s induced by doxorubicin (p53; [1]): significantly decreased
Levels of p53 protein, p53S15p and p53K382ac induced by doxorubicin (p53; [1]): marked reduction
H3 acetylation at Lys9 (p53; [2]): decrease
Histone H3 phosphorylation at Ser10 (p53; [2]): increase
Direct inhibition of lysine acetyltransferase activity of CBP/p300 (CBP/p300): ruled out
